How the values were obtained:
Type in all cases: in vivo
Setaria viridis (SETVI) = assay: Pre-emergence herbicidal action against SETVI; conditions: scored visually after about 3 weeks vs untreated controls
Stellaria media (STEME) = assay: Pre-emergence herbicidal action against STEME; conditions: scored visually after about 3 weeks vs untreated controls
Outline: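 Weed seeds are sown in pots under soil, and WP or EC formulations are applied pre-emergence to the soil surface as an aqueous suspension or emulsion with 0.5% additive. After about 3 weeks in the greenhouse, effect is scored visually as % versus untreated controls (100% = plants dead, 0% = like control).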

[1] = system: Echinochloa crus-galli (ECHCG); assay: Post-emergence herbicidal action against ECHCG; conditions: 20 g/ha, post-emergence at one-leaf stage, rated visually after about 3 weeks vs untreated controls
Outline: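 Greenhouse plants in sandy loam were sprayed at the one-leaf stage, 2-3 weeks after sowing. Activity was scored visually after about 3 weeks against untreated controls (0% = like control, 100% = dead).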

[2] = system: Amaranthus retroflexus (AMARE); assay: Post-emergence herbicidal action against AMARE; conditions: 20 g/ha, post-emergence at one-leaf stage, rated visually after about 3 weeks vs untreated controls
Outline: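 Greenhouse-grown plants in sandy loam were treated at the one-leaf stage, 2–3 weeks after sowing. Activity was rated visually after about 3 weeks against untreated controls (100% = plants dead, 0% = like control).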

Viola tricolor (VIOTR) = assay: Post-emergence herbicidal action against VIOTR; conditions: 20 g/ha, post-emergence at one-leaf stage, rated visually after about 3 weeks vs untreated controls
Experimental: (§1) VIOTR: Viola tricolor 2. Post-Emergence Herbicidal Action and Crop Plant Compatibility Seeds of monocotyledonous and dicotyledonous weeds and crop plants are placed in sandy loam in plastic or organic planting pots, covered with soil and cultivated in a greenhouse under controlled growth conditions. 2 to 3 weeks after sowing, the test plants are treated at the one-leaf stage. The compounds of the invention, formulated in the form of wettable powders (WP) or as emulsion concentrates (EC), are then sprayed onto the green parts of the plants as aqueous suspension or emulsion with addition of 0.5% additive at a water application rate of […] (converted). After the test plants had been kept in the greenhouse under optimum growth conditions for about 3 weeks, the activity of the preparations is rated visually in comparison to untreated controls. The tables below show the herbicidal activity of numerous compounds according to the invention against important harmful plants. For example, 100% activity=the plants have died, 0% activity=like control plants.

Veronica persica (VERPE) [3] = assay: Pre-emergence herbicidal action against VERPE; conditions: scored visually after about 3 weeks vs untreated controls
Outline: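 Weed seeds were sown in pots and covered with soil. Pots were kept in the greenhouse and damage was scored visually after about 3 weeks as percent versus untreated controls (100% = plants died).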

Veronica persica (VERPE) [4] = assay: Post-emergence herbicidal action against VERPE; conditions: 20 g/ha, post-emergence at one-leaf stage, rated visually after about 3 weeks vs untreated controls
Experimental: as §1, with “VERPE: Veronica persica” for “VIOTR: Viola tricolor”

Cc1nn(C)c(O)c1C(=O)c1ccc(C(F)(F)F)c2c1OCC[S+]2[O-] (stereo not shown) [Example 1-40]
Pre-emergence action against SETVI (Setaria viridis (SETVI); 80 g/ha): 100% | Pre-emergence action against STEME (Stellaria media (STEME); 80 g/ha): 100% | Post-emergence action against ECHCG [1]: 90% | Post-emergence action against AMARE [2]: 80% | Post-emergence action against VIOTR (Viola tricolor (VIOTR)): 80%

Cn1ncc(C(=O)c2ccc(C(F)(F)F)c3c2OCC[S+]3[O-])c1O (stereo not shown) [Example 1-30]
Pre-emergence action against SETVI (Setaria viridis (SETVI); 80 g/ha): 100% | Pre-emergence action against STEME (Stellaria media (STEME); 80 g/ha): 100% | Post-emergence action against ECHCG [1]: 100% | Post-emergence action against AMARE [2]: 100% | Post-emergence action against VIOTR (Viola tricolor (VIOTR)): 90%

Cn1ncc(C(=O)c2ccc(C(F)(F)F)c3c2OCS3)c1O [Example 1-13]
Pre-emergence action against SETVI (Setaria viridis (SETVI); 320 g/ha): 100% | Pre-emergence action against STEME (Stellaria media (STEME); 320 g/ha): 100% | Pre-emergence action against VERPE (Veronica persica (VERPE) [3]; 320 g/ha): 100% | Post-emergence action against ECHCG [1]: 90% | Post-emergence action against AMARE [2]: 90%

CCn1ncc(C(=O)c2ccc(C(F)(F)F)c3c2OCC[S+]3[O-])c1O (stereo not shown) [Example 1-35]
Pre-emergence action against SETVI (Setaria viridis (SETVI); 80 g/ha): 100% | Pre-emergence action against STEME (Stellaria media (STEME); 80 g/ha): 100% | Post-emergence action against ECHCG [1]: 80% | Post-emergence action against AMARE [2]: 100% | Post-emergence action against VIOTR (Viola tricolor (VIOTR)): 100%

Cn1ncc(C(=O)c2ccc(C(F)(F)F)c3c2OC[S+]3[O-])c1O (stereo not shown) [Example 1-28]
Pre-emergence action against SETVI (Setaria viridis (SETVI); 320 g/ha): 100% | Pre-emergence action against STEME (Stellaria media (STEME); 320 g/ha): 100% | Pre-emergence action against VERPE (Veronica persica (VERPE) [3]; 320 g/ha): 100% | Post-emergence action against ECHCG [1]: 90% | Post-emergence action against AMARE [2]: 100% | Post-emergence action against VIOTR (Viola tricolor (VIOTR)): 90% | Post-emergence action against VERPE (Veronica persica (VERPE) [4]): 90%

Cn1ncc(C(=O)c2ccc(C(F)(F)F)c3c2OCCS3(=O)=O)c1O [Example 1-45]
Pre-emergence action against SETVI (Setaria viridis (SETVI); 80 g/ha): 100% | Pre-emergence action against STEME (Stellaria media (STEME); 80 g/ha): 100% | Pre-emergence action against VERPE (Veronica persica (VERPE) [3]; 80 g/ha): 100% | Post-emergence action against AMARE [2]: 100% | Post-emergence action against VIOTR (Viola tricolor (VIOTR)): 90% | Post-emergence action against VERPE (Veronica persica (VERPE) [4]): 90%

Cn1ncc(C(=O)c2ccc(C(F)(F)F)c3c2OCCS3)c1O [Example 1-15]
Pre-emergence action against SETVI (Setaria viridis (SETVI); 80 g/ha): 100% | Pre-emergence action against STEME (Stellaria media (STEME); 80 g/ha): 100% | Pre-emergence action against VERPE (Veronica persica (VERPE) [3]; 80 g/ha): 90% | Post-emergence action against ECHCG [1]: 80% | Post-emergence action against AMARE [2]: 80% | Post-emergence action against VIOTR (Viola tricolor (VIOTR)): 80%

Cn1nc(C2CC2)c(C(=O)c2ccc(C(F)(F)F)c3c2OCC[S+]3[O-])c1O (stereo not shown) [Example 1-116]
Pre-emergence action against SETVI (Setaria viridis (SETVI); 80 g/ha): 100% | Pre-emergence action against STEME (Stellaria media (STEME); 80 g/ha): 100% | Pre-emergence action against VERPE (Veronica persica (VERPE) [3]; 80 g/ha): 80% | Post-emergence action against ECHCG [1]: 100% | Post-emergence action against AMARE [2]: 90%

Cc1nn(C)c(O)c1C(=O)c1ccc(C(F)(F)F)c2c1OCCS2(=O)=O [Example 1-55]
Pre-emergence action against STEME (Stellaria media (STEME); 80 g/ha): 100% | Pre-emergence action against VERPE (Veronica persica (VERPE) [3]; 80 g/ha): 90% | Post-emergence action against ECHCG [1]: 100% | Post-emergence action against AMARE [2]: 100% | Post-emergence action against VIOTR (Viola tricolor (VIOTR)): 80%

CCn1ncc(C(=O)c2ccc(C(F)(F)F)c3c2OCCS3(=O)=O)c1O [Example 1-50]
Pre-emergence action against SETVI (Setaria viridis (SETVI); 80 g/ha): 100% | Pre-emergence action against STEME (Stellaria media (STEME); 80 g/ha): 100% | Pre-emergence action against VERPE (Veronica persica (VERPE) [3]; 80 g/ha): 90% | Post-emergence action against ECHCG [1]: 80% | Post-emergence action against AMARE [2]: 100%

Cn1ncc(C(=O)c2ccc(C(F)(F)C(F)(F)F)c3c2OCS3)c1O [Example 1-128]
Pre-emergence action against SETVI (Setaria viridis (SETVI); 80 g/ha): 100% | Pre-emergence action against STEME (Stellaria media (STEME); 80 g/ha): 100% | Post-emergence action against ECHCG [1]: 90% | Post-emergence action against AMARE [2]: 80%
